# Test system: HssRS-dependent hrtAB expression
# Assay: Luminescence-based assay to monitor HssRS-dependent hrtAB expression (phrtABlux reporter), Newman
# Assay type: cell-based, Staphylococcus aureus
# Conditions: Newman; for activation at 0.0825 µM: Staphylococcus aureus, NEWMAN, read-out: % Lumi, luminescence induced by the compound compared to the heme control (82.5 nM) in the same plate; for Luminescence: raw luminescence value obtained in a luminometer
# Method in brief: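 S. aureus Newman wild type or ΔhssR carrying a hrtAB promoter–luxCDABE reporter (phrtABlux), grown in TSB with 10 μg/ml chloramphenicol at 37 °C. Light output read against 82.5 nM heme as the in-plate positive control. Activity given as % of heme-induced luminescence.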
Compound,activation at 0.0825 µM [%],Luminescence
COc1ccc(-c2cc(-c3ccc(C)cc3)[nH]n2)c(O)c1,180,1122
COc1ccc(-c2cc(-c3ccc(OC)cc3O)n[nH]2)cc1,238,1482
COc1ccc(C(=O)Nc2sc(-c3ccccc3)cc2C(N)=O)cc1,244,1781
Fc1ccc(CNC(=S)Nc2ccc(Oc3ccccc3)cc2)cc1,362,1570
CC(C)(C)c1ccc(O)c(NC(=S)NC(=O)c2cc3ccccc3o2)c1,101,419
Oc1c(-c2cc(-c3ccco3)[nH]n2)ccc2ccccc12 [drawing 25],–,2622
CC(NC(=O)C1(c2ccccc2)CCCC1)C1COc2ccccc2O1 (stereo not shown) [drawing 26],266,757
Cc1ccc(O)c(NC(=O)c2nn3c(c2Br)NC(c2ccco2)CC3C(F)(F)F)c1 (stereo not shown) [drawing 29],307,1949
Cc1cccc(C(=O)Nc2ccc(-c3nc4ccccc4o3)cc2)c1 [drawing 43],–,837
CC(NC(=O)C1(c2ccccc2)CCCC1)C1COc2ccccc2O1 (stereo not shown) [drawing 45],–,757
O=C(N/N=C/c1ccc(-c2ccc(Br)cc2)o1)C1COc2ccccc2O1 (stereo not shown) [drawing 48],133,485
O=C(N/N=C/c1ccc(-c2cccc(C(F)(F)F)c2)o1)C1COc2ccccc2O1 (stereo not shown) [drawing 49],152,558
COc1ccc(Br)cc1C(=O)NC(=S)Nc1cc(C)c(C)cc1O [drawing 63],–,946
Oc1c(-c2cc(-c3ccco3)[nH]n2)ccc2ccccc12 [drawing 65],630,2622
CCCN1C(=O)/C(=C2/C(=O)N(CC(=O)Nc3ccc(Cl)cc3)c3ccccc32)SC1=S [drawing 67],–,98
Cc1ccc(NS(=O)(=O)c2ccc3c(c2)Cc2cc(S(=O)(=O)Nc4ccc(C)cc4)ccc2-3)cc1 [drawing 74],–,7328
COc1ccccc1NC1=C/C(=N\S(=O)(=O)c2ccc(Br)cc2)c2ccccc2C1=O [drawing 81],510,2270
